ChEMBL document CHEMBL2406984, “Design and synthesis of hydroxyethylamine (HEA) BACE-1 inhibitors: prime side chromane-containing inhibitors” (Bioorg Med Chem Lett, 2013)

Legend:
[1] = molecular target: Cathepsin D (Homo sapiens, UniProt P07339); test: Inhibition of cathepsin-D (unknown origin) using C-terminal biotinylated peptide substrate treated 30 mins before addition of peptide substrate measured after 110 mins by fluorescence polarization assay
[2] = Apparent permeability of the compound from apical to basolateral side of MDCK2 cells at 5 uM after 120 mins by LC/MS/MS analysis; format: ADME, cell-based, Canis lupus familiaris, MDCK-II; details: dog, MDCK
[3] = molecular target: Beta-secretase 1 (Homo sapiens, UniProt P56817); test: Inhibition of recombinant BACE-1 (unknown origin) expressed in Escherichia coli using biotinylated peptide substrate treated 20 mins before substrate addition measured after 3 hrs by fluorescence polarization assay
[4] = Lipophilicity, log P of the compound; format: physicochemical; details: octanol/water
[5] = Dissociation constant, pKa of the compound; format: physicochemical

Sequence of Beta-secretase 1 (P56817 whole entry): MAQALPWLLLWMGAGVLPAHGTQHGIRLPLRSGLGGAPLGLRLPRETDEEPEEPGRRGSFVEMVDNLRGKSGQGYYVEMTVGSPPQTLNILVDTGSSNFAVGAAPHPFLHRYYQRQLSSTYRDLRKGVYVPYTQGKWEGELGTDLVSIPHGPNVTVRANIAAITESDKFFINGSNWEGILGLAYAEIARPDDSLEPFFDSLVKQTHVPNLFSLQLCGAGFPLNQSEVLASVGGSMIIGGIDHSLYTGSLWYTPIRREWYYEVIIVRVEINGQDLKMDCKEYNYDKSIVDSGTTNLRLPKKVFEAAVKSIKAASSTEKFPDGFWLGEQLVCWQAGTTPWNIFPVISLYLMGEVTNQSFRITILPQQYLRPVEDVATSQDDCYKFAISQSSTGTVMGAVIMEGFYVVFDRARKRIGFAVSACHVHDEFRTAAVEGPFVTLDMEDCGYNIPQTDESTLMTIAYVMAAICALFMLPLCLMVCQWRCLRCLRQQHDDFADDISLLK
Sequence of Cathepsin D (P07339 65-162 limits assumed): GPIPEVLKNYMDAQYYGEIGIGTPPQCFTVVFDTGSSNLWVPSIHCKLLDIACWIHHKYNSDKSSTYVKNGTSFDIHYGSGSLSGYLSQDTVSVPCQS
Sequence of Cathepsin D (P07339 169-412 limits assumed): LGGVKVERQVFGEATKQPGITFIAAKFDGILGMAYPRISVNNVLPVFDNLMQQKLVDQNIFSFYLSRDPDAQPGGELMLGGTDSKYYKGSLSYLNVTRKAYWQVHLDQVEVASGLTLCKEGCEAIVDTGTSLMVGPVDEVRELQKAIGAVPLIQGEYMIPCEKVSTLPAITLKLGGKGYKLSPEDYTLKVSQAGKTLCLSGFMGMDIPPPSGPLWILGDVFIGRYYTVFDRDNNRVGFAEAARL

IC50 [1]	Papp A→B at 2 h, 5 µM [2]	IC50 [3]	logP [4]	pKa [5]	SMILES
18 nM	0.3 ×10⁻⁶ cm/s	8 nM			CC(=O)N[C@@H](Cc1cc(F)cc(F)c1)[C@H](O)CN[C@H]1CC(C)(C)Oc2ccc(CC(C)(C)C)cc21
940 nM		127 nM			CC(=O)N[C@@H](Cc1cc(F)cc(F)c1)[C@H](O)CN[C@H]1CS(=O)(=O)Cc2ccc(C(C)C)cc21
70 nM	6.4 ×10⁻⁶ cm/s	60 nM			CC(=O)N[C@@H](Cc1cc(F)cc(F)c1)[C@H](O)CN[C@H]1CCOc2ccc(CC(C)(C)C#N)cc21
22500 nM		27100 nM			CC(=O)N[C@@H](Cc1cc(F)cc(F)c1)[C@H](O)CN[C@H]1CC2(COC2)Oc2ccc(CC(C)(C)C)cc21
2840 nM	0.3 ×10⁻⁶ cm/s	116 nM	3.2	5.8	CCc1ccc2c(c1)[C@@H](NC[C@@H](O)[C@H](Cc1cc(F)cc(F)c1)NC(C)=O)CS(=O)(=O)C2
77 nM		574 nM			CCCCc1ccc2c(c1)[C@@H](NC[C@@H](O)[C@H](Cc1cc(F)cc(F)c1)NC(C)=O)CCC2
8 nM	0.3 ×10⁻⁶ cm/s	45 nM	4.9	8.9	CC(=O)N[C@@H](Cc1cc(F)cc(F)c1)[C@H](O)CN[C@H]1CCCc2ccc(CC(C)(C)C)cc21
144 nM	14.6 ×10⁻⁶ cm/s	186 nM			CC(=O)N[C@@H](Cc1cc(F)cc(F)c1)[C@H](O)CN[C@H]1CCOc2ccc(CC(C)(F)F)cc21
80 nM	8.3 ×10⁻⁶ cm/s	148 nM			CC(=O)N[C@@H](Cc1cc(F)cc(F)c1)[C@H](O)CN[C@H]1CCOc2ccc(CC(C)(C)F)cc21
286 nM	11 ×10⁻⁶ cm/s	1320 nM			CC(=O)N[C@@H](Cc1cc(F)cc(F)c1)[C@H](O)CN[C@H]1CCOc2ccc(OC3CCCO3)cc21 (mixture of isomers)
74 nM		378 nM			CC(=O)N[C@@H](Cc1cc(F)cc(F)c1)[C@H](O)CN[C@H]1CCCc2ccc(C(C)(C)C)cc21
251 nM		4700 nM			CC(=O)N[C@@H](Cc1cc(F)cc(F)c1)[C@H](O)CN[C@H]1CCCc2ccc(Cc3ccccc3)cc21
374 nM	1.1 ×10⁻⁶ cm/s	690 nM			CC(=O)N[C@@H](Cc1cc(F)cc(F)c1)[C@H](O)CN[C@H]1CC(C)(C)Oc2ccc(OC(C)(C)C)cc21
5 nM		9 nM			COC[C@@]1(C)C[C@H](NC[C@@H](O)[C@H](Cc2cc(F)cc(F)c2)NC(C)=O)c2cc(CC(C)(C)C)ccc2O1 (mixture of isomers)
478 nM		1300 nM			CC(=O)N[C@@H](Cc1cc(F)cc(F)c1)[C@H](O)CN[C@H]1CCOc2ccc(CC(C)(C)C(F)F)cc21
362 nM		42 nM			CC(=O)N[C@@H](Cc1cc(F)cc(F)c1)[C@H](O)CN[C@H]1CS(=O)(=O)Cc2ccc(CC(C)(C)C)cc21
		19700 nM			CC(=O)N[C@@H](Cc1cc(F)cc(F)c1)[C@H](O)CN[C@H]1COCc2ccc(CC(C)(C)C)cc21
145 nM		221 nM			CC(=O)N[C@@H](Cc1cc(F)cc(F)c1)[C@H](O)CN[C@H]1CCOc2ccc(OC3CCCC3)cc21
8 nM	2.5 ×10⁻⁶ cm/s	6 nM			CC(=O)N[C@@H](Cc1cc(F)cc(F)c1)[C@H](O)CN[C@H]1CC(C)(C)Oc2ccc(CC(C)(C)C#N)cc21
429 nM	11.2 ×10⁻⁶ cm/s	414 nM			CC(=O)N[C@@H](Cc1cc(F)cc(F)c1)[C@H](O)CN[C@H]1CCOc2ccc(OC(C)C)cc21
12 nM	3 ×10⁻⁶ cm/s	46 nM			CC(=O)N[C@@H](Cc1cc(F)cc(F)c1)[C@H](O)CN[C@H]1CCOc2ccc(CC(C)(C)C)cc21
68 nM		643 nM			CC(=O)N[C@@H](Cc1cc(F)cc(F)c1)[C@H](O)CN[C@H]1CCN(C)c2ccc(CC(C)(C)C)cc21
59 nM	1.2 ×10⁻⁶ cm/s	89 nM			CC(=O)N[C@@H](Cc1cc(F)cc(F)c1)[C@H](O)CN[C@H]1CC(C)(C)Oc2ccc(OC(F)(F)F)cc21
6 nM		22 nM			CC(=O)N[C@@H](Cc1cc(F)cc(F)c1)[C@H](O)CN[C@H]1CC2(CC2)Oc2ccc(CC(C)(C)C)cc21 (mixture of isomers)
16 nM	1.7 ×10⁻⁶ cm/s	9 nM			CC(=O)N[C@@H](Cc1cc(F)cc(F)c1)[C@H](O)CN[C@H]1CC(C)(C)Oc2ccc(CC(C)(F)F)cc21
2 nM		15 nM			CCC[C@]1(C)C[C@H](NC[C@@H](O)[C@H](Cc2cc(F)cc(F)c2)NC(C)=O)c2cc(CC(C)(C)C)ccc2O1
255 nM	7.1 ×10⁻⁶ cm/s	858 nM			CC(=O)N[C@@H](Cc1cc(F)cc(F)c1)[C@H](O)CN[C@H]1CCOc2ccc(OC3CCOC3)cc21 (mixture of isomers)
126 nM		538 nM			CCc1ccc2c(c1)[C@@H](NC[C@@H](O)[C@H](Cc1cc(F)cc(F)c1)NC(C)=O)CCC2
1 nM		6 nM			CCC[C@@]1(C)C[C@H](NC[C@@H](O)[C@H](Cc2cc(F)cc(F)c2)NC(C)=O)c2cc(CC(C)(C)C)ccc2O1
		93 nM			CC(=O)N[C@@H](Cc1cc(F)cc(F)c1)[C@H](O)CN[C@H]1CCCc2ccc(CC(C)C)cc21
